# Where no end group is shown, it is not given here. [ ]: non-standard residue; d: D form. pY = N[C@@H](Cc1ccc(OP(=O)(O)O)cc1)C(=O)O
# Tests used:
# [1] = test system: HepG2 cells expressing IR-GFP mutants; assay: cellular localization of IR-GFP mutants in HepG2 cells after inhibitors; format: cell-based; conditions: starved 14 h, inhibitors 4 h, no insulin; for PM levels of Class II IR mutants: R1020Q, V1054M, A1075D, V1086E, I1143T
# Excerpt: FIGS. 4A-E. Dysregulation of IR endocytosis as a potential contributing factor to human insulin resistance syndromes. (FIG. 4A) Representative images of liver specimens from human non-diabetes and diabetes patients stained with DAPI (blue) and anti-IR (red) and anti-ZO-1 (green) antibodies. Scale bars, 40 μm. (FIG. 4B) Quantification of the percentage of cells with positive IR PM signals in liver specimens in FIG. 4A (mean±SD; *p<0.0001). (FIG. 4C) HepG2 cells stably expressing IR-GFP R1020Q, V1054M, A1075D, V1086E, or I1143T were serum starved and stained with anti-GFP and anti-RAB7 antibodies. Scale bar, 5 μm. (FIG. 4D) Quantification of the ratios of PM and IC IR-GFP signals of cells in FIG. 4C (mean±SD; *p<0.0001). (FIG. 4E) Targeting feedback regulation of IR endocytosis for diabetes treatment. Left panel depicts the feedback regulation of IR endocytosis by ERK1/2 and SHP2 during unperturbed insulin signaling.
# FIGS. 9A-D. Characterization of IR mutations found in human patients. (FIG. 9A) HepG2 cells expressing IR-GFP Class I mutants (P997T, V1012M, A1055V, K1095E, R1119Q, H1157R, R1191Q, Y1361C, or R1378Q) were starved for 14 h, treated with the indicated inhibitors for 4 h, and stained with anti-GFP (IR; green) and DAPI (blue). Scale bar, 5 m. (FIG. 9B) HepG2 cells expressing IR-GFP Class II mutants (R1020Q, V1054M, A1075D, V1086E, or I1143T) were analyzed as described in FIG. 9A. (FIG. 9C) HepG2 cells expressing IR-GFP Class III mutants (A1162E or W1220L) were analyzed as described in A. (FIG. 9D) HepG2 cells expressing IR-GFP WT, R1020Q, or V1054M were serum starved for 14 h and treated with DMSO or 80 μM Dynasore for 4 h. Cell lysates were blotted with the indicated antibodies.
# Mutations of IR are known to cause inherited severe insulin resistance syndromes, but the mechanisms by which these mutations affect IR function have not been systematically explored. HepG2 cell lines were generated which stably expressed IR mutants fused to GFP, and the subcellular localization of these IR-GFP proteins was examined (FIGS. 9A-C and Table 1).
# There were three distinct classes of IR mutants based on their subcellular localization in the unstimulated state. Class I mutants localized to the PM. […] Thus, certain IR mutations found in human insulin resistance syndromes perturbs IR kinase regulation and causes premature IR endocytosis.
# Cellular localization of IR mutants was examined after inhibiting the SHP2 or MAPK pathways (FIGS. 4C-D, and FIGS. 9A-C).
# Indirect immunofluorescence microscopy was performed on cells grown on coverslips and fixed in cold methanol at −20° C. for 10 min. The fixed cells were incubated with PBS for 30 min and 3% BSA in 0.1% PBST for 1 h, and then treated with diluted antibodies in 0.3% BSA in 0.1% PBST at 4° C. overnight. After being washed, cells were incubated with fluorescent secondary antibodies and mounted on microscope slides in ProLong Gold Antifade reagent with DAPI (Invitrogen). Images of fixed cells were acquired as a series of 0.4 m stacks with a DeltaVision® system (Applied Precision®, Issaquah, Wash.). Raw images were deconvolved using the iterative algorithm implemented in the softWoRx® software (Applied Precision®, Issaquash, Wash.). The central section of a 0.4 μm z-stack containing 3 contiguous focal planes was used for quantification. The cell edges were defined with Image J. The whole cell signal intensity (WC) and intracellular signal intensity (IC) were measured. The plasma membrane signal intensity (PM) was calculated by subtracting IC from WC. Identical exposure times and magnifications were used for all comparative analyses.
# [2] = test system: HepG2 cells expressing IR-GFP WT; assay: insulin-activated IR endocytosis in HepG2 cells expressing IR-GFP WT (immunofluorescence, PM/IC ratio); format: cell-based; conditions: serum starved 14 h, inhibitor 2 h, then 100 nM insulin 20 min; BMS536924 2 μM, U0126 40 μM, SHP099 40 μM, AKT inhibitor VIII 5 μM, BI2536 200 nM, Reversine 1 μM
# Method: (FIG. 2A) HepG2 cells expressing IR-GFP WT were starved, treated with the indicated inhibitors for 2 h, treated without or with 100 nM insulin for 20 min, and stained with anti-GFP (IR; green) and DAPI (blue). […] Quantification of the ratios of PM and IC IR-GFP signals of cells was shown (mean±SD; *p<0.0001).
# To test whether the MAPK pathway and SHP2 might regulate the IRS1/2-AP2 interaction and IR endocytosis through modulating IRS1/2 phosphorylation patterns, the effects of inhibiting SHP2 or the MAPK pathway on insulin-activated IR endocytosis were examined (FIG. 2A and FIG. 7A).
# For testing the effects of kinase inhibitors on IR endocytosis, the cells were serum starved for 14 h and inhibitors were added at 2 h before insulin treatment.
# AP2M1 (residues 160-435) [3] = molecular target: T1, AP2M1 (residues 160-435) (Homo sapiens, UniProt Q96CW1); assay: isothermal titration calorimetry (ITC) of IRS1 peptides with AP2M1; format: binding; conditions: 20° C., HEPES buffer pH 7.5
# T1 construct: The AP2M1 fragment (residues 160-435) was cloned into a modified pET28a; His6 (N, cleaved yes); made in house; host or cells: E. coli BL21(DE3)
# T1 sequence (Q96CW1 160-435): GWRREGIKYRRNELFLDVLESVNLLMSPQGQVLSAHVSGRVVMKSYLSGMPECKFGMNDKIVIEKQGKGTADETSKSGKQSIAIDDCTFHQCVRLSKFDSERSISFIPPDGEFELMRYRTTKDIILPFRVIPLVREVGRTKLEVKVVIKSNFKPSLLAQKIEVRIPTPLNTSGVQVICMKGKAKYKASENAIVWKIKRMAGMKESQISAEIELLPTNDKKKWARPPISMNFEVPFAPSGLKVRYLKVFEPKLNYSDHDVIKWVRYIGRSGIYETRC
# Excerpt: The unphosphorylated and phosphorylated IRS1 peptides containing 612YMPMS (SEQ ID NO:7) FIG. 7B) were chemically synthesized and used for in vitro pull-down assays to examine their binding to AP2M1 (FIG. 2B). […] Thus, phosphorylation of IRS1 by ERK1/2 enhances IRS1 binding to AP2M1.
# The AP2M1 fragment (residues 160-435) was cloned into a modified pET28a that introduced an N-terminal His6-tag followed by a thrombin cleavage site. The plasmid was transformed into BL21(DE3) E. coli cells. Protein expression was induced by 0.2 mM IPTG at 20° C. overnight. The harvested pellets were lysed in the lysis buffer II (20 mM Tris-HCl, pH 7.5, 500 mM NaCl, 20 mM Imidazole, 1 mM PMSF). After sonication, lysates were cleared by centrifugation at 4° C. The supernatants were filtered by […] filter and incubated with pre-equilibrated Ni2+-NTA beads (Qiagen®). […]
# (§1) For GST pull-down assays of in vitro translated (IVT) IRS1 proteins, beads bound to GST-AP2M1 or GST were incubated with IVT products diluted in the cell lysis buffer at 4° C. for 2 h. After incubation and washing, proteins bound to beads were eluted with the SDS loading buffer, resolved with SDS-PAGE, and detected with Coomassie staining or immunoblotting with the appropriate antibodies. […]
# AP2M1 (residues 160-435) [4] = molecular target: T1, AP2M1 (residues 160-435); assay: in vitro peptide pull-down of AP2M1 with IRS1 peptides; format: binding; conditions: peptide beads pull-down, SDS-PAGE, Coomassie
# Method: FIGS. 2A-I. The MAPK pathway and SHP2 promote insulin-activated IR endocytosis. (FIG. 2A) HepG2 cells expressing IR-GFP WT were starved, treated with the indicated inhibitors for 2 h, treated without or with 100 nM insulin for 20 min, and stained with anti-GFP (IR; green) and DAPI (blue). See also FIG. 7A for representative images. Quantification of the ratios of PM and IC IR-GFP signals of cells was shown (mean±SD; *p<0.0001). (FIG. 2B) Binding of IRS1 peptides to AP2M1 (residues 160-435). Input and proteins bound to IRS1-peptide beads were analyzed by SDS-PAGE and stained with Coomassie (CBB). The relative band intensities are shown below (mean±SD; n=4 independent experiments). (FIG. 2C) ITC analysis of binding between IRS1 peptides and AP2M1 (residue 160-435), with the Kd indicated. (FIG. 2D) The IRS1 peptides were incubated with active SHP2 for the indicated durations, spotted onto membranes, and detected with the anti-pY612-IRS1 antibody. (FIG. 2E) Quantification of the relative SHP2 activity in FIG. 2D (mean±SD; n=4 independent experiments; *p<0.0001). (FIG. 2F) Model of the regulation of insulin-activated IR endocytosis by a phosphorylation switch on IRS1/2. Insulin-bound IR phosphorylates itself and IRS1/2, and activates the PI3K-AKT and MAPK pathways. SHP2 acts upstream of RAS-RAF and promotes the activation of MAPK pathway. p31^comet binds to the IR-bound MAD2 and blocks IR-AP2 association to prevent premature IR endocytosis. In feedback regulation, activated ERK1/2 phosphorylate S616 and other sites on IRS1. […]
# as §1
Compound,PM levels of Class II IR mutants [1],insulin-activated IR endocytosis (ratio of PM and IC IR-GFP signals) [2],also measured
O=C(N/N=C/c1ccc(O)c(O)c1)c1cc2ccccc2cc1O [dynasore],elevated the IR signal of Class II mutants at the PM,–,–
N#CC(=C(/N)Sc1ccccc1N)/C(C#N)=C(\N)Sc1ccccc1N [Compound U0126],significantly enhanced the PM levels of Class II IR mutants,blocked IR endocytosis,PM levels of Class I and III IR mutants [1]: not those of Class I and III IR mutants
"O=c1[nH]c2ccccc2n1C1CCN(Cc2ccc(-c3nc4cc5[nH]cnc5cc4nc3-c3ccccc3)cc2)CC1 [AKTi, VIII]",–,did not affect IR endocytosis,–
CHTDDGYMPMSPGVA [YMPMS],–,–,Kd (AP2M1 (residues 160-435) [3]): 2.03 µM
"AMPAS: mutant IRS1 peptide CHTDDGAMPASPGVA (SEQ ID NO:10), Y612 and M615 replaced by alanine",–,–,binding to AP2M1 (AP2M1 (residues 160-435) [4]): did not
c1nc2nc(Nc3ccc(N4CCOCC4)cc3)nc(NC3CCCCC3)c2[nH]1 [Reversine],–,did not appreciably inhibit IR endocytosis,–
pYMPMS: singly phosphorylated IRS1 peptide CHTDDGpYMPMSPGVA (SEQ ID NO:12) (CHTDDG[pY]MPMSPGVA),–,–,binding to AP2M1 (AP2M1 (residues 160-435) [4]): abolished AP2M1 binding
Cc1cc(N2CCOCC2)cc2[nH]c(-c3c(NC[C@@H](O)c4cccc(Cl)c4)cc[nH]c3=O)nc12 [BMS536924],restored Class II IR mutants at the PM,blocked IR endocytosis,–

# Source: US11426422B2, “SHP2 inhibitors and methods of use thereof” (Research Development Foundation, priority 2018, dated 2022)
